According to ChEMBL document CHEMBL1208724, “A new group of oxime carbamates as reversible inhibitors of fatty acid amide hydrolase” (Bioorg Med Chem Lett, 2010):

Molecular target: T1, Fatty-acid amide hydrolase 1 (Mus musculus, UniProt O08914)
T1 sequence (O08914 whole entry): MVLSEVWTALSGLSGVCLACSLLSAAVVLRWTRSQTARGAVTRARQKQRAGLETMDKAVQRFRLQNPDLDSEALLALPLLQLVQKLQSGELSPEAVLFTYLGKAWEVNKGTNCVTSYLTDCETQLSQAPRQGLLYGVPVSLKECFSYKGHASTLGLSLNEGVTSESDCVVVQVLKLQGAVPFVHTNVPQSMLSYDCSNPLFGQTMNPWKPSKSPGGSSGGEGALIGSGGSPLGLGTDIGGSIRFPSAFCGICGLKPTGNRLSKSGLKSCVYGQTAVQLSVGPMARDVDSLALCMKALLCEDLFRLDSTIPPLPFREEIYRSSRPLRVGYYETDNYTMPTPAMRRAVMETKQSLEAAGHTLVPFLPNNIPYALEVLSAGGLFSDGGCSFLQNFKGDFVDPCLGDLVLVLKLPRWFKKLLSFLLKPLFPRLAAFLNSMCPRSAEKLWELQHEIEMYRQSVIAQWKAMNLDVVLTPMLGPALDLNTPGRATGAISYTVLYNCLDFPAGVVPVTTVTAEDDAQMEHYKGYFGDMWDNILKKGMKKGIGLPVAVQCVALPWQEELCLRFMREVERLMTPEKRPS
Assay: Inhibition of mouse brain FAAH assessed as conversion of [3H-ethanolamine]AEA to [3H]ethanolamine by scintillation counting

IC50 [nM]	Structure (SMILES)
220	C/C(=N\OC(=O)N1CCCCC1)c1cccc(-c2ccccc2)c1
200	C/C(=N\OC(=O)Nc1ccccc1)c1ccc(-c2cccs2)cc1
